This is an account of results in US8476248B2, “Process for the preparation of a water-soluble complex having resveratrol compounds; products comprising said complex; and uses thereof” (Uniao Brasileira de Educacao e Assistencia—Mantenedora da …, priority 2007, dated 2013).

≈ marks a conversion by molar mass, not a printed value.

One series is described as follows: physchem. The format is physicochemical. The protocol: Ten mg, 100 mg, 500 mg, 1000 mg and 2000 mg of β-CD/Res complex were put in 100 mL volumetric flasks and water was added until completing their volume. The solutions stayed at ultrasound for 60 minutes. Then samples were centrifuged and filtered in a 0.45 μm pore diameter cellulose acetate membrane. Twenty μL portions of the samples were diluted 2000 times and their absorbances were measured by a UV-VIS spectrophotometer (FIG. 2). It was noticed that system saturation happens from 1000 mg of β-CD/Res (FIG. 3). The concentration of trans-resveratrol in 1000 mg and 2000 mg β-CD/Res sample concentrations was determined by High-Performance Liquid Chromatography (HPLC). For quantification, an external calibration curve was used, with trans-resveratrol concentrations ranging from 0.10 a 200.0 mg.L^−1. HPLC was carried out in isocratic elution (flow of 1.0 mL min^−1), with an aqueous solution of 25% acetonitrile, pH 3.0, adjusted with H3PO4. The chromatograph was equipped with UV-VIS detector and a C18 column, 5 μm 250×4.6 mm. Sample portions were diluted 1000 times with eluent, and 20 μL were injected and detected in 306 nm. The concentrations of trans-resveratrol of the 1000 mg sample of β-CD/Res complex were 3010±62 mg.L^−1 and of the 2000 mg sample of βCD/Res complex were 2960.5±53 mg.L^−1. […] All analyses were carried out in quintuplicate.

For series [1] the following is noted: background statement; cited from earlier work.

For orientation: Solubility means the dissolved amount per volume that the medium holds. A high value points to a readily soluble substance. One may read the solubility as how much of the substance goes into solution per volume. In the series “physchem” (60 min), `Oc1ccc(C=Cc2cc(O)cc(O)c2)cc1` [trans-resveratrol, 3,5,4′-trihydroxystilbene] came in with a Solubility of 27.5 µg/mL (≈ 120 µM). Besides, the solubility at 60 min in “physchem” (water, thermodynamic from solid) stood at 27.5 ± 0.45 µg/mL (≈ 120 µM). In addition, the water solubility result in series [1] is on record as “less than 0.03 g/L”.
